According to paper PMC5778071, “Development of matrix metalloproteinase-targeted probes for lung inflammation detection with positron emission tomography” (Scientific Reports, 2018):

Tests used:
Type in all cases: biochemical
[1] = molecular target: T1, recombinant human MMP-9 (Homo sapiens, UniProt P14780); experiment: Competitive fluorogenic enzyme activity assay, MMP-9; conditions: fluorogenic substrate 5 μM, 5 nM enzyme, 30 min; read-out: IC50 toward MMP-9
T1 construct: purchased R&D Systems 911-MP
T1 sequence (P14780 94-707): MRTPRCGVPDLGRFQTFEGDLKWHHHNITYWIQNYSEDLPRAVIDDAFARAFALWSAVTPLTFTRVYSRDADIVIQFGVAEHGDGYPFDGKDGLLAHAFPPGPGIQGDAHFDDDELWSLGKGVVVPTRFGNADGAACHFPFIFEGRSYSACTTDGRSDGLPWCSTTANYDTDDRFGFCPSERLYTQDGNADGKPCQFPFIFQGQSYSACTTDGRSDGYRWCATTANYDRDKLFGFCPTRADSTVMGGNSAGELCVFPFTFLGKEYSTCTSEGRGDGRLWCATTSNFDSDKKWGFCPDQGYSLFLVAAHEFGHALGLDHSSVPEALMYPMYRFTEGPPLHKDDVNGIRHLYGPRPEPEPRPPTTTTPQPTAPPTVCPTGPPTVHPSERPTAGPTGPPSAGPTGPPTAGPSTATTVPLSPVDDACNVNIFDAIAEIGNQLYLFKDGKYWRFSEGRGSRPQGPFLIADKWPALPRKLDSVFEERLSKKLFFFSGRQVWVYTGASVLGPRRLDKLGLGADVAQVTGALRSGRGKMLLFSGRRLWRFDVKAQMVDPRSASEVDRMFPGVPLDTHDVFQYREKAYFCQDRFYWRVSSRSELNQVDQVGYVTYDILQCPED
Method: (§1) Determination of the IC50 toward human MMP-2, MMP-9, MMP-12 and MMP-13 was performed by a competitive enzyme activity assay according to a literature procedure. The assay was performed by incubating 5 μM of the synthesized fluorogenic peptide substrate Mca-Pro-Leu-Gly-Leu-Dpa(Dnp)-Ala-Arg-NH2 with 5 nM recombinant human MMP-2 (AS72005, Anaspec Inc., CA, USA), MMP-9 (911-MP, R&D Systems, MN, USA), MMP-12 (917-MP, R&D Systems) and MMP-13 (AS72011, Anaspec) along with various concentrations of ML5, I-ML5, PFB, PFP, IPFB, and IPFP (0.2–365 nM) in a buffer (pH 7.5, 50 mM tris(hydroxymethyl)aminomethane, 10 mM calcium chloride, 150 mM sodium chloride, and 0.01% Brij-35) containing 5% dimethyl sulfoxide. The increase in fluorescence over time was measured using a SpectraMax M2e microplate reader (Molecular Devices Inc., CA, USA) with an excitation wavelength of 325 nm and an emission wavelength of 395 nm. The fluorescence intensity after 30 min was plotted as a function of the concentration of each of the compounds on a logarithmic scale to produce an inhibition curve that was subsequently fit with a sigmoidal function by a least squares method. The IC50 values were calculated from the inhibition curves using GraphPad Prism 6 (GraphPad Software, Inc., CA, USA).

[2] = molecular target: T2, recombinant human MMP-12 (Homo sapiens, UniProt P39900); experiment: Competitive fluorogenic enzyme activity assay, MMP-12; conditions: for IC50: fluorogenic substrate 5 μM, 5 nM enzyme, 30 min, read-out: IC50 toward MMP-12
T2 construct: purchased R&D Systems 917-MP
T2 sequence (P39900 106-470): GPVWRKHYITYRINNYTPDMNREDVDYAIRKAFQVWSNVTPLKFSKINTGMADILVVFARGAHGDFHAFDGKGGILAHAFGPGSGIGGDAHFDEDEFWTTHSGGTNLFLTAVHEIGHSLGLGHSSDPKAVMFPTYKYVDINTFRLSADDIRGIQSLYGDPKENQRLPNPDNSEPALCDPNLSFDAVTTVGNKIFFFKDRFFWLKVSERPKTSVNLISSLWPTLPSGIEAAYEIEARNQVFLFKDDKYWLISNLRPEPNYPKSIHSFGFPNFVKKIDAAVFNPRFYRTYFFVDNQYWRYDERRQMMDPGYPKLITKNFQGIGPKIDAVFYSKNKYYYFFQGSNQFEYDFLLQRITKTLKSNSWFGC
Method: Determination of the IC50 toward human MMP-2, MMP-9, MMP-12 and MMP-13 was performed by a competitive enzyme activity assay according to a literature procedure. […] The increase in fluorescence over time was measured using a SpectraMax M2e microplate reader (Molecular Devices Inc., CA, USA) with an excitation wavelength of 325 nm and an emission wavelength of 395 nm. The fluorescence intensity after 30 min was plotted as a function of the concentration of each of the compounds on a logarithmic scale to produce an inhibition curve that was subsequently fit with a sigmoidal function by a least squares method. The IC50 values were calculated from the inhibition curves using GraphPad Prism 6 (GraphPad Software, Inc., CA, USA).

[3] = molecular target: T3, recombinant human MMP-2 (Homo sapiens, UniProt P08253); experiment: Competitive fluorogenic enzyme activity assay, MMP-2; conditions: fluorogenic substrate 5 μM, 5 nM enzyme, 30 min; read-out: IC50 toward MMP-2
T3 construct: purchased Anaspec Inc. AS72005
T3 sequence (P08253 110-660): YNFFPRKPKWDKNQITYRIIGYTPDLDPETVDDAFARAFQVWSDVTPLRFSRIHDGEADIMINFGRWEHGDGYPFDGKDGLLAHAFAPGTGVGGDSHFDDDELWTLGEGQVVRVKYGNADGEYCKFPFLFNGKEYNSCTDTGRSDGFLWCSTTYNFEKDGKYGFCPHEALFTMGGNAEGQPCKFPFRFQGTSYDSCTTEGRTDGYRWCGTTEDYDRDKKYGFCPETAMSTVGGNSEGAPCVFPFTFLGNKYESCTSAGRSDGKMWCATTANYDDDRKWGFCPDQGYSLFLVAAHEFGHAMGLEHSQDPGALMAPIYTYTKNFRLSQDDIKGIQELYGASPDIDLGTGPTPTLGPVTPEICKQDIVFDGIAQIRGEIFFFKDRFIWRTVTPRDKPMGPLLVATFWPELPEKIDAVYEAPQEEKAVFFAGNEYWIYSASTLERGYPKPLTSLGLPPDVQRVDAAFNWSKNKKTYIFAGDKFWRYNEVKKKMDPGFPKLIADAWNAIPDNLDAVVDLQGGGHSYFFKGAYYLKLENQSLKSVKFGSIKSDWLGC
Method: as §1

[4] = molecular target: T4, recombinant human MMP-13 (Homo sapiens, UniProt P45452); experiment: Competitive fluorogenic enzyme activity assay, MMP-13; conditions: fluorogenic substrate 5 μM, 5 nM enzyme, 30 min; read-out: IC50 toward MMP-13
T4 construct: purchased Anaspec AS72011
Method: as §1

IC50 [1] [nM]	IC50 [2] [nM]	IC50 [3] [nM]	IC50 [4] [nM]	inverse IC50 ratio (selectivity toward MMP-12) relative to MMP-2 ([2]; MMP-12 vs MMP-2)	inverse IC50 ratio (selectivity toward MMP-12) relative to MMP-9 ([2]; MMP-12 vs MMP-9)	inverse IC50 ratio (selectivity toward MMP-12) relative to MMP-13 ([2]; MMP-12 vs MMP-13)	SMILES
13.8 ± 1.5	2.3 ± 1.1	3.7 ± 1	11.8 ± 6.3				CC(C)C[C@H](CC(=O)NO)C(=O)N[C@@H](Cc1ccc(I)cc1)C(=O)N[C@@H](CCCCN)C(N)=O [I-ML5]
	1.5						CC(C)C[C@H](CC(=O)NO)C(=O)N[C@@H](Cc1ccc(I)cc1)C(=O)N[C@@H](CCCCNC(=O)C(C)F)C(N)=O (stereo partly drawn) [^18F-IPFP]

Further lines, the molecule ahead of its results:

SMILES	IC50 [1] [nM]	IC50 [2] [nM]	IC50 [3] [nM]	IC50 [4] [nM]	inverse IC50 ratio (selectivity toward MMP-12) relative to MMP-2 ([2]; MMP-12 vs MMP-2)	inverse IC50 ratio (selectivity toward MMP-12) relative to MMP-9 ([2]; MMP-12 vs MMP-9)	inverse IC50 ratio (selectivity toward MMP-12) relative to MMP-13 ([2]; MMP-12 vs MMP-13)
CC(C)C[C@H](CC(=O)NO)C(=O)N[C@@H](Cc1ccc(I)cc1)C(=O)N[C@@H](CCCCNC(=O)c1ccc(F)cc1)C(N)=O [IPFB]	148 ± 30.6	12.3 ± 4	29.1 ± 9.3	44.5 ± 21.6			
CC(C)C[C@H](CC(=O)NO)C(=O)N[C@@H](Cc1ccc(I)cc1)C(=O)N[C@@H](CCCCNC(=O)C(C)F)C(N)=O (stereo partly drawn) [IPFP]	8.1 ± 2	1.5 ± 0.8	4.4 ± 2.3	4.1 ± 1.7	2.9	5.4	2.7
CC(C)C[C@H](CC(=O)NO)C(=O)N[C@@H](Cc1ccccc1)C(=O)N[C@@H](CCCCNC(=O)c1ccc(F)cc1)C(N)=O [PFB]	178 ± 24.2	24.2 ± 14.1	77.7 ± 4	66.1 ± 26.1			
CC(C)C[C@H](CC(=O)NO)C(=O)N[C@@H](Cc1ccccc1)C(=O)N[C@@H](CCCCNC(=O)C(C)F)C(N)=O (stereo partly drawn) [PFP]	54.1 ± 38.3	4.5 ± 2.5	12.5 ± 7.1	11.1 ± 6.6			
